Experimental data: patent publication US20220079924A1, “GLUCOCORTICOID RECEPTOR MODULATORS” (ORIC Pharmaceuticals, Inc., priority 2018, published 2022)

Target: T1, GR (Homo sapiens, UniProt P04150)
T1 construct: expressed in transfected cells; host or cells: CHO-K1 (CHO-K1-GR-MMTV-Luc reporter cells)
T1 sequence (P04150 1-777): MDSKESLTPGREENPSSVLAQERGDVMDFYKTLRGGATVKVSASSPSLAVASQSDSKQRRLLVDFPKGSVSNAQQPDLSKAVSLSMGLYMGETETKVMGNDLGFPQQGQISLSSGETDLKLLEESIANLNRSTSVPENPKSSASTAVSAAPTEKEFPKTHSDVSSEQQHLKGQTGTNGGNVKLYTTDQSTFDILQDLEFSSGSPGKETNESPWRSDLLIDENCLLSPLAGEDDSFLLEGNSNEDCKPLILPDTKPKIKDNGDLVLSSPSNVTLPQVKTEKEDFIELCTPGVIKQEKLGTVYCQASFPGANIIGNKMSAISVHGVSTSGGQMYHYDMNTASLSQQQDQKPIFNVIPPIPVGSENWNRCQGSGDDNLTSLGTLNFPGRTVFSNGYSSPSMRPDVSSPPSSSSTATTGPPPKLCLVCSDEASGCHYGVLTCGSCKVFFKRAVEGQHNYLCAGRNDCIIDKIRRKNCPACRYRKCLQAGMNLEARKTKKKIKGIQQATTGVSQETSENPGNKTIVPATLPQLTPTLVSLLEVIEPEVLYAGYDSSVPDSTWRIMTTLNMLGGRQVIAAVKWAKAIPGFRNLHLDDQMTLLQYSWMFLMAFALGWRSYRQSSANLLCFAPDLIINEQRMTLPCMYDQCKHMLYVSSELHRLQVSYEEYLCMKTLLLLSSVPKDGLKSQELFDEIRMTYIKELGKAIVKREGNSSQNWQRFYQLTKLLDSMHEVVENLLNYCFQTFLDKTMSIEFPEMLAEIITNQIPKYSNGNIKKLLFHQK
Assay: In Vitro GR Luciferase Reporter Assay (antagonist assay)
Type: cell-based
Details: CHO-K1-GR-MMTV-Luc reporter cells, 10 nM Dexamethasone, 18-24 hours
Experimental: Example A: In Vitro GR Luciferase Reporter Assay
Cell Line: CHO-K1-GR-MMTV-Luc reporter cells
Culture Media: DMEM (with phenol red)+10% FBS
Assay Media: DMEM (without phenol red)+10% CSS
Culture CHO-K1-GR-MMTV-Luc reporter cells in T175 flasks in Culture Media at conditions less than 90% confluence.
Using Bravo (Agilent) liquid handler:
200× DMSO 1:3 serial dilutions of control and test compounds in 96-well non-sterile V bottom plate in DMSO, 12 points for each compound were prepared.
Prepared 5× compound serial dilutions: Add 97.5 μL/well of Assay Media into 96-well non-sterile V bottom plate then added 2.5 ul of 200× concentration of compounds and mix well.
Seeded cells for Antagonist Assay: 5200 CHO-K1-GR-MMTV-Luc reporter cells were seeded in Greiner #781080 flat clear bottom 384-well white TC plate in 20 ul of Assay Media containing 12.5 nM Dexamethasone (final concentration=10 nM).
Added compounds: 5 μl of 5× compounds were added to appropriate wells and followed with a quick spin (1000 rpm, 10 sec) to bring media and cells to the bottom of plate. The plates were covered with SealMate film to avoid evaporation and placed in 37° C. incubator for approximately 18-24 hours.
Read plates: Equilibrate appropriate amount of Promega OneGlo luciferase reagent to room temperature. Remove the plates from incubator and add 25 uL of OneGlo reagent/well by Bravo and read the plates on Tecan Spark plate reader within 15 minutes.
The ability of the compounds disclosed herein to inhibit GR activity was quantified and the respective IC50 value was determined. Table 1 provides the cellular IC50 values of compounds disclosed herein.

IC50	SMILES
≤ 0.1 µM	CC(C)N([C@H]1CCC2=Cc3c(cnn3-c3ccc(F)nc3)C[C@]2(C(=O)c2cc(C(F)(F)F)ccn2)C1)S(=O)(=O)c1ncn(C)n1 [Example 51]
≤ 0.1 µM	CC([C@H]1CCC2=Cc3c(cnn3-c3ccc(F)cc3)C[C@]2(C(=O)c2cc(F)ccn2)C1)S(=O)(=O)c1ncn(C)n1 (some centres unmarked) [Example 77]
≤ 0.1 µM	C[C@H]([C@H]1CCC2=Cc3c(cnn3-c3ccc(F)cc3)C[C@]2(C(=O)c2cc(F)ccn2)C1)S(=O)(=O)c1ncn(C)n1 [Example 83]
≤ 0.1 µM	Cn1cc(S(=O)(=O)N(C2CC2)[C@H]2CCC3=Cc4c(cnn4-c4ccc(F)nc4)C[C@]3(C(=O)c3cc(C(F)(F)F)ccn3)C2)cn1 [Example 18]
≤ 0.1 µM	Cn1cnc(S(=O)(=O)N(C2CC2)[C@H]2CCC3=Cc4c(cnn4-c4ccc(F)cc4)C[C@]3(C(=O)c3cc4c(cn3)OCCO4)C2)n1 [Example 96]
≤ 0.1 µM	Cn1cnc(S(=O)(=O)[C@H]2CCC3=Cc4c(cnn4-c4ccc(F)cc4)C[C@]3(C(=O)c3cc(C(F)F)ccn3)C2)n1 [Example 90]
≤ 0.1 µM	C[C@@H]([C@H]1CCC2=Cc3c(cnn3-c3ccc(F)cc3)C[C@]2(C(=O)c2ncc(C(F)(F)F)s2)C1)S(=O)(=O)c1cnn(C)c1 (single isomer, unassigned) [Example 10, ((4aR,6S)-1-(4-Fluorophenyl)-6-((R)-1-((1-methyl-1H-pyrazol-4-yl)sulfonyl)ethyl)-1,4,5,6,7,8-hexahydro-4aH-benzo[f]indazol-4a-yl)(5-(trifluoromethyl)thiazol-2-yl)methanone or ((4aR,6S)-1-(4-fluorophenyl)-6-((S)-1-((1-methyl-1H-pyrazol-4-yl)sulfonyl)ethyl)-1,4,5,6,7,8-hexahydro-4aH-benzo[f]indazol-4a-yl)(5-(trifluoromethyl)thiazol-2-yl)methanone]
≤ 0.1 µM	Cn1cnc(S(=O)(=O)N(C2CC2)[C@H]2CCC3=Cc4c(cnn4-c4ccc(F)cc4)C[C@]3(C(=O)c3ncc(C(C)(C)C)s3)C2)c1 [Example 1, N-((4aS,6S)-4a-(5-(tert-Butyl)thiazole-2-carbonyl)-1-(4-fluorophenyl)-4,4a,5,6,7,8-hexahydro-1H-benzo[f]indazol-6-yl)-N-cyclopropyl-1-methyl-1H-imidazole-4-sulfonamide]
≤ 0.1 µM	Cn1cc(S(=O)(=O)N(C2CC2)[C@H]2CCC3=Cc4c(cnn4-c4ccc(F)cn4)C[C@]3(C(=O)c3cc(C(F)(F)F)ccn3)C2)cn1 [Example 74]
≤ 0.1 µM	CC(C)N([C@H]1CCC2=Cc3c(cnn3-c3ccc(F)nc3)C[C@]2(C(=O)c2ncc(C(F)(F)F)s2)C1)S(=O)(=O)c1ncn(C)n1 [Example 38]
≤ 0.1 µM	Cn1cc(S(=O)(=O)N(CC(F)F)[C@H]2CCC3=Cc4c(cnn4-c4ccc(F)cc4)C[C@]3(C(=O)c3cc(C(F)(F)F)ccn3)C2)cn1 [Example 37]
0.1 to 1 µM	Cn1cc(S(=O)(=O)N[C@H]2CCC3=Cc4c(cnn4-c4ccc(F)cc4)C[C@]3(C(=O)c3cc(F)ccn3)C2)cn1 [Example 98]
≤ 0.1 µM	Cn1cnc(S(=O)(=O)N(CC(F)(F)F)[C@H]2CCC3=Cc4c(cnn4-c4ccc(F)cc4)C[C@]3(C(=O)c3cc(F)ccn3)C2)c1 [Example 82]
≤ 0.1 µM	Cn1ccc(S(=O)(=O)N(C2CC2)[C@H]2CCC3=Cc4c(cnn4-c4ccc(F)nc4)C[C@]3(C(=O)c3cc(F)ccn3)C2)n1 [Example 89]
0.1 to 1 µM	Cn1cnc(S(=O)(=O)N([C@H]2CCC3=Cc4c(cnn4-c4ccc(F)cc4)C[C@]3(C(=O)c3cc(C(F)(F)F)ccn3)C2)[C@H]2C[C@](O)(C(F)(F)F)C2)n1 [Example 42]
≤ 0.1 µM	CC(C)N([C@H]1CCC2=Cc3c(cnn3-c3ccc(F)nc3)C[C@]2(C(=O)c2cc(F)ccn2)C1)S(=O)(=O)c1cnn(C)c1 [Example 68]

IC50	SMILES
≤ 0.1 µM	Cn1cnc(S(=O)(=O)N(C2CC2)[C@H]2CCC3=Cc4c(cnn4-c4ccc(F)cn4)C[C@]3(C(=O)c3cc(C(F)(F)F)ccn3)C2)n1 [Example 55]
≤ 0.1 µM	Cn1cc(S(=O)(=O)N(CCF)[C@H]2CCC3=Cc4c(cnn4-c4ccc(F)cc4)C[C@]3(C(=O)c3cc(F)ccn3)C2)cn1 [Example 5, N-(2-Fluoroethyl)-N-((4aS,6S)-1-(4-fluorophenyl)-4a-(4-fluoropicolinoyl)-4,4a,5,6,7,8-hexahydro-1H-benzo[f]indazol-6-yl)-1-methyl-1H-pyrazole-4-sulfonamide]
≤ 0.1 µM	Cn1cnc(S(=O)(=O)N([C@H]2CCC3=Cc4c(cnn4-c4ccc(F)cc4)C[C@]3(C(=O)c3cc(Cl)ccn3)C2)[C@H]2C[C@](O)(C(F)(F)F)C2)n1 [Example 44]
≤ 0.1 µM	Cn1cc(S(=O)(=O)N(C2CC2)[C@H]2CCC3=Cc4c(cnn4-c4ccc(F)nc4)C[C@]3(C(=O)c3ncc(C(C)(C)C)s3)C2)cn1 [Example 61]
≤ 0.1 µM	O=C(c1cc(Cl)ccn1)[C@]12Cc3cnn(-c4ccc(F)cc4)c3C=C1CC[C@H](N(CC(F)F)S(=O)(=O)c1ccc(F)cc1)C2 [Example 28]
≤ 0.1 µM	O=C(c1cc(C(F)(F)F)ccn1)[C@]12Cc3cnn(-c4ccc(F)nc4)c3C=C1CC[C@H](N(C1CC1)S(=O)(=O)c1ccc(F)cc1)C2 [Example 19]
≤ 0.1 µM	Cn1cc(S(=O)(=O)N(CC(F)F)[C@H]2CCC3=Cc4c(cnn4-c4ccc(F)cc4)C[C@]3(C(=O)c3ncc(C(F)(F)F)s3)C2)cn1 [Example 12]
≤ 0.1 µM	CC(C)N([C@H]1CCC2=Cc3c(cnn3-c3ccc(F)cn3)C[C@]2(C(=O)c2cc(C(F)(F)F)ccn2)C1)S(=O)(=O)c1cnn(C)c1 [Example 6, N-((4aS,6S)-1-(5-Fluoropyridin-2-yl)-4a-(4-(trifluoromethyl)picolinoyl)-4,4a,5,6,7,8-hexahydro-1H-benzo[f]indazol-6-yl)-N-isopropyl-1-methyl-1H-pyrazole-4-sulfonamide]
≤ 0.1 µM	O=C(c1cc(F)ccn1)[C@]12Cc3cnn(-c4ccc(F)cc4)c3C=C1CC[C@H](N(CC(F)F)S(=O)(=O)c1ccc(F)cc1)C2 [Example 25]
≤ 0.1 µM	Cn1cnc(S(=O)(=O)N([C@H]2CCC3=Cc4c(cnn4-c4ccc(F)cc4)C[C@]3(C(=O)c3cc(Cl)ccn3)C2)[C@H]2C[C@@](O)(C(F)(F)F)C2)n1 [Example 45]
≤ 0.1 µM	Cn1ccc(S(=O)(=O)N(C2CC2)[C@H]2CCC3=Cc4c(cnn4-c4ccc(F)cc4)C[C@]3(C(=O)c3cc(F)ccn3)C2)c1 [Example 58]
≤ 0.1 µM	Cn1cnc(S(=O)(=O)N(C2CC2)[C@H]2CCC3=Cc4c(cnn4-c4ccnc(F)c4)C[C@]3(C(=O)c3cc(C(F)(F)F)ccn3)C2)n1 [Example 40]
≤ 0.1 µM	CCN([C@H]1CCC2=Cc3c(cnn3-c3ccc(F)nc3)C[C@]2(C(=O)c2cc(F)ccn2)C1)S(=O)(=O)c1ncn(C)n1 [Example 94]
≤ 0.1 µM	Cn1ccc(S(=O)(=O)C(C)(C)[C@H]2CCC3=Cc4c(cnn4-c4ccc(F)cc4)C[C@]3(C(=O)c3cc(C(F)(F)F)ccn3)C2)n1 [Example 88]
≤ 0.1 µM	C[C@@H]([C@H]1CCC2=Cc3c(cnn3-c3ccc(F)cc3)C[C@]2(C(=O)c2ccc(C(F)(F)F)cn2)C1)S(=O)(=O)c1cnn(C)c1 [Example 36]
≤ 0.1 µM	Cn1cnc(S(=O)(=O)N(C2CC2)[C@H]2CCC3=Cc4c(cnn4-c4ccc(F)cc4)C[C@]3(C(=O)c3cc(F)ccn3)C2)c1 [Example 2, N-Cyclopropyl-N-((4aS,6S)-1-(4-fluorophenyl)-4a-(4-fluoropicolinoyl)-4,4a,5,6,7,8-hexahydro-1H-benzo[f]indazol-6-yl)-1-methyl-1H-imidazole-4-sulfonamide]
